Measured values as given in ChEMBL document CHEMBL1134196, “Oxo-piperazine derivatives of N-arylpiperazinones as inhibitors of farnesyltransferase” (Bioorg Med Chem Lett, 2001).
pIC50: −log10 of the molar value.

Tests used:
Rat1 [1] = experiment: Inhibition of RAT1 v-Ha-ras-transformed cell growth in soft agar; assay type: functional; conditions: Rattus norvegicus
[2] = Partition coefficient (logP); assay type: physicochemical; conditions: octanol/water
[3] = Maximal plasma concentration required for pharmacokinetic data in dogs at dose of 1 mg/kg perorally; assay type: ADME, organism-based, Canis lupus familiaris; parameters: dose 1 mg/kg, route oral; conditions: dog, po
[4] = Half life value of the compound; assay type: ADME; conditions: rat
Rat1 [5] = experiment: Inhibition of anchorage-dependent proliferation of RAT1 v-Ha-ras-transformed cells on poly(HEMA); assay type: functional, cell-based; conditions: Rattus norvegicus
[6] = Pharmacokinetic data in dogs at dose of 1 mg/kg perorally, and the area under curve (AUC) was reported.; assay type: ADME, organism-based, Canis lupus familiaris; parameters: dose 1 mg/kg, route oral; conditions: dog, in vivo, po
Rattus norvegicus = species: Rattus norvegicus; experiment: Concentration at which 80% cultured cells remain viable assessed by MTT staining; assay type: functional
[7] = molecular target: Protein farnesyltransferase (Homo sapiens, UniProt P49354+P49356); experiment: Inhibition of [3H]FPP incorporation into recombinant Ras-CVIM by human farnesyl transferase; assay type: protein-complex assay
[8] = molecular target: Geranylgeranyl transferase type I (Homo sapiens, UniProt P49354+P53609); experiment: Inhibition of human geranylgeranyltransferase-1; assay type: protein-complex assay

SMILES	IC90 (Rat1 [1]) [µM]	logP [2]	Cmax [3] [nM]	half-life [4] [min]	pIC50 (Rat1 [5])	AUC [6] [µM·h]	IC20 (Rattus norvegicus) [µM]	pIC50 [7]	pIC50 [8]
CCCC[C@H]1CN(c2cccc(C)c2C)C(=O)CN1Cc1cncn1Cc1ccc(C#N)cc1	1	> 3.7	140	36	4.55	0.15	50	–	–
N#Cc1ccc(Cn2cncc2CN2CCN(c3cccc(Cl)c3)CC2)cc1	1	> 3.4	–	–	–	–	25	3.60	–
N#Cc1ccc(Cn2cncc2CN2CCN(c3cccc(Cl)c3)CC2=O)cc1	1	2.51	3140	72	–	8.58	> 100	4.00	–
N#Cc1ccc(Cn2cncc2C(=O)N2CCN(c3cccc(Cl)c3)C(=O)C2)cc1	1	–	–	–	–	–	> 100	4.48	–
Cc1cccc(N2CCN(Cc3cncn3Cc3ccc(C#N)cc3)CC2=O)c1C	1	2	1060	30	4.08	1.4	10	4.96	–
Cc1cccc(N2CCN(Cc3cncn3Cc3ccc(C#N)cc3)C(=O)C2=O)c1C	> 1	1.11	2290	60	–	4.43	10	4.70	–
N#Cc1ccc(Cn2cncc2C(=O)N2CCN(c3cccc(Cl)c3)CC2)cc1	0.1	2.79	–	–	–	–	> 100	–	–
N#Cc1ccc(Cn2cncc2CN2CCN(c3ccccc3)C(=O)C2)cc1	–	1.32	–	–	–	–	–	5.30	5.06
N#Cc1ccc(Cn2cncc2CN2CCN(c3cccc(Cl)c3)C(=O)C2=O)cc1	1	1.24	3110	132	–	12.5	> 100	4.96	–
CCCC[C@H]1CN(c2cccc(C)c2C)CC(=O)N1Cc1cncn1Cc1ccc(C#N)cc1	10	> 3.5	960	138	5.60	3.46	100	5.89	–
N#Cc1ccc(Cn2cncc2CN2CCN(c3ccccc3)C(=O)C2=O)cc1	–	0.46	–	–	–	–	–	4.80	< 4.70
CCCC[C@H]1CN(c2cccc(C)c2C)C(=O)C(=O)N1Cc1cncn1Cc1ccc(C#N)cc1	1	3.3	1950	54	4.82	4.25	10	5.52	–
N#Cc1ccc(Cn2cncc2CN2CC(=O)N(c3ccccc3)CC2=O)cc1	–	0.55	–	–	–	–	–	3.02	–
N#Cc1ccc(Cn2cncc2CN2CCN(c3cccc(Cl)c3)C(=O)C2)cc1 [L-778123 FREE BASE]	0.1	2.11	2980	47.4	–	5.3	> 100	–	–
